Results reported in US6348483B1, “Use of derivatives of methylene-bis-oxazolidine and compositions obtained thereby” (Air Liquide Sante (International), priority 1998, dated 2002).

System: Chlorella fusca (CF)
Test: Algistatic finish (SM 023) of pure acrylate house paint
Type: cell-based
Settings: without and with stress due to leaching; active compound concentration of 0.2% by weight based on house paint and test substance
Description: In separate batches, the test concentrations of the active compounds/products were incorporated into the house paint, and the fungicidal and/or algistatic finish was determined using the stated test methods.
Incorporation and testing were carried out according to the methods SM 022 and SM 023 below.
This laboratory method was employed for determining the resistance of house coatings to colonization by algae. For this method, house coatings on standardized paper are used as test substrate and Chlorella fusca is used as test alga. It is furthermore possible to use pure cultures of other algae species of practical relevance.
The experiments were carried out in Petri dishes on agar nutrient media.
50 g of the material to be finished were, in separate batches, mixed with various concentrations of the algicide to be examined and homogenized for 3-5 min using a basket stirrer.
Paper carrier materials having the dimensions 90×270 mm (Schleicher & Schüll No. 2589 B/X 24078) were coated with the test material. The paint and/or render samples were coated to a wet-layer thickness of 250 μm by knife coating. […] In the case of renders, the layer thickness depends, as in practice, on the particle size. The coated carrier materials, hereinbelow referred to as test bodies, were subsequently dried in a horizontal position for five days.
[…] The cross section of the container for the watering in the direction of flow was 1000±500 cm^2.
From the pretreated test bodies, three sample bodies having a diameter of 5 cm were punched out and sterilized in a Co^60 source using at least 10 kGy.
Aseptically, the samples were placed onto the algae nutrient media, and the centre of the sample was inoculated with 5 ml of each algae suspension.
The mixture of the algae suspensions was spread on the surface using a Drigalski spatula or an offset sterile glass rod.
During the growth phase at 22±2° C., the coated samples in the Petri dishes were irradiated with light of an intensity of about 1000 Lux (customary fluorescent tubes, type D 67 daylight). A cycle of in each case 12 hours of irradiation and 12 hours of storage in the dark was used.
The colonization of the samples by algae was examined and evaluated after two weeks. Evaluation was carried out visually. The evaluation of the samples was based on the following evaluation scale:
No growth of algae on the test bodies
Formation of an inhibitory zone or growth of algae on the nutrient medium up to the edge of the test bodies
Visible colonization of the test body by algae

With COC(=O)Nc1nc2ccccc2[nH]1 [carbendazim, Methyl 1H-benzimidazol-2-ylcarbamate] the “Algicidal action (in words)” value was “no algicidal action”.
